Measured values published in US20100048640A1, “HYDRAZIDE COMPOUND AND HARMFUL ARTHROPOD-CONTROLLING AGENT CONTAINING THE SAME” (Sumitomo Chemical Company, Limited, priority 2007, published 2010).

Assays:
Type in all cases: in vivo
[1] = system: summer fruit tortrix (Adoxophyes orana fasciata); assay: Test Example 4: apple seedling spray, summer fruit tortrix larvae, controlling value; conditions: 168 h, flowable formulation, 20 mL on apple seedling, first-instar larvae, seven days after spraying; for pest or weed control at 500 ppm: 500 ppm active ingredient; for pest or weed control at 200 ppm: 200 ppm active ingredient
Experimental: Thus, test spray solutions were prepared. On the other hand, 20 mL of the test spray solution as described above was sprayed to an apple seedling (28 day-old seeding; tree height: about 15 cm) planted in a plastic cup. The apple seedling was air-dried to such an extent that the spray solution sprayed on the apple seedling was dried, and about 30 first-instar larvae of summer fruit tortrix (Adoxophyes orana fasciata) were released. Seven days after spraying, the number of worms surviving on the apple seedling was counted, and a controlling value was calculated by the following equation. Controlling value(%)={1−(Cb×Tai)/(Cai×Tb))×100

[2] = system: diamondback moths (Plutella xylostella); assay: Test Example 1: cabbage foliar spray, diamondback moth larvae, controlling value; conditions: 120 h, flowable formulation, 20 mL/cup on cabbage, third-instar larvae, after 5 days; for pest or weed control at 500 ppm: 500 ppm active ingredient; for pest or weed control at 200 ppm: 200 ppm active ingredient
Experimental: Thus, test spray solutions were prepared. On the other hand, cabbage was planted in a polyethylene cup, and grown until the third true leaf or the fourth true leaf was developed. The test spray solution as described above was sprayed in an amount of 20 mL/cup on the cabbage. After the spray solution on the cabbage was dried, 10 third-instar larvae of diamondback moths (Plutella xylostella) were placed on the cabbage. After 5 days, the number of diamondback moths was counted, and the controlling value was calculated by the following equation. Controlling value(%)={1−(Cb×Tai)/(Cai×Tb))×100 wherein Cb: the number of worms in an untreated group before treatment; Cai: the number of worms in an untreated group on observation; Tb: the number of worms in a treated group before treatment; Tai: the number of worms in a treated group on observation.

[3] = system: yellow citrus thrips (Franklinella occidentalis); assay: Test Example 5: cucumber leaf spray, yellow citrus thrips larvae, controlling value; conditions: 168 h, flowable formulation, 20 mL/cup on cucumber, cut first true leaf, 20 larvae, leaf area damaged, seven days after spraying; for pest or weed control at 500 ppm: 500 ppm active ingredient; for pest or weed control at 200 ppm: 200 ppm active ingredient
Experimental: Thus, test spray solutions were prepared. On the other hand, cucumber was planted in a polyethylene cup, and was grown until the first true leaf was developed. The test spray solution as described above was sprayed in an amount of 20 mL/cup on the cucumber. After the spray solution on the cucumber was dried, the first true leaf was cut and then placed on a filter paper (diameter: 70 mm) containing water in a polyethylene cup (diameter: 110 mm). On the cucumber leaf, 20 larvae of yellow citrus thrips ([…] occidentalis) were released, and the polyethylene cup was capped. Seven days after spraying, the percentage of leaf area damaged by the insect was examined and a controlling value was calculated by the following equation. Controlling value(%)={1-(Cb×Tai)/(Cai×Tb))×100

[4] = system: common cutworm (Spodoptera litura); assay: Test Example 3: cabbage foliar spray, common cutworm larvae, controlling value; conditions: 96 h, flowable formulation, 20 mL/cup on cabbage, fourth-instar larvae, after 4 days; for pest or weed control at 500 ppm: 500 ppm active ingredient; for pest or weed control at 200 ppm: 200 ppm active ingredient
Experimental: Thus, test spray solutions were prepared. On the other hand, cabbage was planted in a polyethylene cup, and grown until the third true leaf or the fourth true leaf was developed. The test spray solution as described above was sprayed in an amount of 20 mL/cup on the cabbage. After the spray solution sprayed on the cabbage was dried, 10 fourth-instar larvae of common cutworm (Spodoptera litura) were placed on the cabbage. After 4 days, the number of common cutworm surviving on the cabbage leaves was counted, and a controlling value was calculated by the following equation. Controlling value(%)={1−(Cb×Tai)/(Cai×Tb))×100

[5] = system: cotton aphids (Aphis gossypii); assay: Test Example 2: cucumber foliar spray, cotton aphids, controlling value; conditions: 144 h, flowable formulation, 20 mL/cup on cucumber, six days after spraying; for pest or weed control at 500 ppm: 500 ppm active ingredient; for pest or weed control at 200 ppm: 200 ppm active ingredient
Experimental: Thus, test spray solutions were prepared. On the other hand, cucumber was planted in a polyethylene cup, and was grown until the first true leaf was developed. About 30 cotton aphids (Aphis gossypii) were placed on the cucumber. One day after, the test spray solution as described above was sprayed in an amount of 20 mL/cup on the cucumber. Six days after spraying, the number of cotton aphids was counted, and a controlling value was calculated by the following equation. Controlling value(%)={1−(Cb×Tai)/(Cai×Tb))×100

| SMILES | pest or weed control at 500 ppm [1] [%] | pest or weed control at 500 ppm [2] [%] | pest or weed control at 500 ppm [3] [%] | pest or weed control at 500 ppm [4] [%] | pest or weed control at 500 ppm [5] [%] | pest or weed control at 200 ppm [1] [%] | pest or weed control at 200 ppm [2] [%] | pest or weed control at 200 ppm [4] [%] | pest or weed control at 200 ppm [5] [%] | pest or weed control at 200 ppm [3] [%] |
| --- | --- | --- | --- | --- | --- | --- | --- | --- | --- | --- |
| CCN(C(=O)c1cc(Br)cc(Br)c1NC(=O)c1cc(Br)nn1-c1ncccc1Cl)N(CC#N)C(=O)OC [1-1] | 100 | 100 | 100 | ≥ 80 | ≥ 90 |  |  |  |  |  |
| COC(=O)N(NC(=O)c1cc(Br)cc(Br)c1NC(=O)c1cc(Br)nn1-c1ncccc1Cl)c1ccccn1 [1-5] | 100 | 100 | 100 | ≥ 80 | ≥ 90 |  |  |  |  |  |
| COC(=O)N(NC(=O)c1cc(Cl)cc(C)c1NC(=O)c1cc(Br)nn1-c1ncccc1Cl)c1ccccn1 [1-6] | 100 | 100 | 100 | ≥ 80 | ≥ 90 |  |  |  |  |  |
| C=CCN(NC(=O)OC)C(=O)c1cc(Br)cc(Br)c1NC(=O)c1cc(Br)nn1-c1ncccc1Cl [1-7] | 100 | 100 | 100 | ≥ 80 | ≥ 90 |  |  |  |  |  |
| C=CCN(NC(=O)c1cc(Br)cc(Br)c1NC(=O)c1cc(Br)nn1-c1ncccc1Cl)C(=O)OC [1-8] | 100 | 100 | 100 | ≥ 80 | ≥ 90 |  |  |  |  |  |
| C=CCN(NC(=O)OC)C(=O)c1cc(Cl)cc(Cl)c1NC(=O)c1cc(Br)nn1-c1ncccc1Cl [1-9] | 100 | 100 | 100 | ≥ 80 | ≥ 90 |  |  |  |  |  |
| C=CCN(NC(=O)c1cc(Cl)cc(Cl)c1NC(=O)c1cc(Br)nn1-c1ncccc1Cl)C(=O)OC [1-10] | 100 | 100 | 100 | ≥ 80 | ≥ 90 |  |  |  |  |  |
| C=CCN(NC(=O)OC)C(=O)c1cc(Cl)cc(C)c1NC(=O)c1cc(Br)nn1-c1ncccc1Cl [1-11] |  |  |  |  |  | 100 | 100 | ≥ 80 | ≥ 90 |  |
| C=CCN(NC(=O)c1cc(Cl)cc(C)c1NC(=O)c1cc(Br)nn1-c1ncccc1Cl)C(=O)OC [1-12] | 100 | 100 | 100 | ≥ 80 | ≥ 90 |  |  |  |  |  |
| C#CCN(NC(=O)OC)C(=O)c1cc(Br)cc(Br)c1NC(=O)c1cc(Br)nn1-c1ncccc1Cl [1-31] |  |  |  |  |  | 100 | 100 | ≥ 80 | ≥ 90 | 100 |
| C#CCN(NC(=O)c1cc(Br)cc(Br)c1NC(=O)c1cc(Br)nn1-c1ncccc1Cl)C(=O)OC [1-32] |  |  |  |  |  | 100 | 100 | ≥ 80 | ≥ 90 | 100 |
| COC(=O)NN(Cc1ccccc1)C(=O)c1cc(Cl)cc(C)c1NC(=O)c1cc(Br)nn1-c1ncccc1Cl [1-57] |  | 100 | 100 | ≥ 80 | ≥ 90 |  |  |  |  |  |
| COC(=O)N(Cc1ccccc1)NC(=O)c1cc(Cl)cc(C)c1NC(=O)c1cc(Br)nn1-c1ncccc1Cl [1-58] |  | 100 | 100 | ≥ 80 | ≥ 90 |  |  |  |  |  |
| COC(=O)N(NC(=O)c1cc(Br)cc(Br)c1NC(=O)c1cc(Br)nn1-c1ncccc1Cl)C1CCCCC1 [1-59] |  | 100 |  | ≥ 80 | ≥ 90 |  |  |  |  |  |
| COC(=O)N(NC(=O)c1cc(Cl)cc(C)c1NC(=O)c1cc(Br)nn1-c1ncccc1Cl)C1CCCCC1 [1-60] | 100 | 100 |  | ≥ 80 |  |  |  |  |  |  |
| COC(=O)NN(CCO)C(=O)c1cc(Br)cc(Br)c1NC(=O)c1cc(Br)nn1-c1ncccc1Cl [1-61] |  | 100 | 100 | ≥ 80 | ≥ 90 |  |  |  |  |  |
| COC(=O)NN(CC=C(Cl)Cl)C(=O)c1cc(Br)cc(Br)c1NC(=O)c1cc(Br)nn1-c1ncccc1Cl [1-63] | 100 | 100 | 100 | ≥ 80 | ≥ 90 |  |  |  |  |  |
| COC(=O)N(CC=C(Cl)Cl)NC(=O)c1cc(Br)cc(Br)c1NC(=O)c1cc(Br)nn1-c1ncccc1Cl [1-64] | 100 | 100 | 100 | ≥ 80 | ≥ 90 |  |  |  |  |  |
